According to article PMC7688903 (Frontiers in Microbiology, 2020):
In brackets after ≈: the same amount, converted by molar mass. Entries after “also recorded” stand apart in the source; their conditions may differ. Structures can show the parent of a compound that is named as a salt.

Tests used:
C. albicans ATCC 10231 = assay: microbe, parasite or virus in culture; type: cell-based, Candida albicans; details: Candida albicans, ATCC10231; C. albicans ATCC 10231; RPMI 1640, 35°C, 48 h; visual; independent triplicate assays; read-out: MIC
Procedure: (§1) The antimicrobial activities of the peptides were tested against E. coli ATCC 25922, P. aeruginosa ATCC 27853, carbapenem-resistant P. aeruginosa SIPI-012, A. baumannii ATCC 19606, carbapenem-resistant A. baumannii SIPI-025, S. aureus ATCC 25923, and C. albicans ATCC 10231. The minimum inhibitory concentration (MIC) values were determined using the microdilution method according to Clinical and Laboratory Standards Institute guidelines ([CLSI, 2008], [2012]). The peptides were dissolved in 10 mM PB to a concentration of 1280 μg/mL as stock solutions.
(§2) For inoculum preparation of bacteria, morphologically similar colonies selected from fresh MH agar plates were transferred using a loop into approximately 10 mL of MH broth in a capped test tube and vortexed. The suspension was adjusted with MH broth to achieve a turbidity equivalent to a 0.5 McFarland standard (BaSO4 solution prepared spectrophotometrically). A working suspension was prepared by making a 1:15 dilution followed by a 1:20 dilution of the stock suspension with MH broth medium to obtain approximately 5 × 10^5 CFU/mL. For inoculum preparation of yeast, five fresh colonies of approximately 1 mm diameter were picked from 24-hour-old cultures of C. albicans and suspended in 5 mL of sterile 0.85% saline. The resulting suspension was vortexed and the cell density was adjusted by adding sufficient sterile saline to achieve a turbidity equivalent to a 0.5 McFarland standard. A working suspension was prepared by making a 1:100 dilution followed by a 1:20 dilution of the stock suspension with RPMI 1640 broth medium to obtain 0.5 × 10^3 to 2.5 × 10^3 CFU/mL. Intermediate twofold dilutions of the peptides were prepared in MH broth and RPMI 1640 medium, and 90 μL aliquots were added to each well in addition to 10 μL of the inoculum prepared above.
(§3) Each plate included a growth control well and a sterility (uninoculated) control well. Colistin, vancomycin hydrochloride, and amphotericin B were used as positive controls for gram-negative bacteria, gram-positive bacteria, and fungi, respectively. The bacterial and fungal plates were incubated at 37°C for 20 h and 35°C for 48 h, respectively, both under ambient atmosphere. The inhibition of microbial growth was assessed visually. The MICs were determined from independent triplicate assays.

S. aureus ATCC 25923 = assay: microbe, parasite or virus in culture; type: cell-based, Staphylococcus aureus; details: Staphylococcus aureus, ATCC25923, 20 h
Procedure: as §1, §2, §3

Trypsin = assay: trypsin in 0.1 M NH4HCO3 buffer (pH 8.2); details: 37°C, up to 24 h

Which MIC (C. albicans ATCC 10231) does the source give for `C[C@@H]1[C@H](O)[C@@H](C)/C=C/C=C/C=C/C=C/C=C/C=C/C=C/[C@H](O[C@@H]2O[C@H](C)[C@@H](O)[C@H](N)[C@@H]2O)C[C@@H]2O[C@](O)(C[C@@H](O)C[C@@H](O)[C@H](O)CC[C@@H](O)C[C@@H](O)CC(=O)O[C@H]1C)C[C@H](O)[C@H]2C(=O)O` [AmB, amphotericin B, reference compound] here?
The MIC was 0.25 µg/mL (≈ 0.271 µM).

For `CN[C@H](CC(C)C)C(=O)N[C@H]1C(=O)N[C@@H](CC(N)=O)C(=O)N[C@H]2C(=O)N[C@H]3C(=O)N[C@H](C(=O)N[C@H](C(=O)O)c4cc(O)cc(O)c4-c4cc3ccc4O)[C@H](O)c3ccc(c(Cl)c3)Oc3cc2cc(c3O[C@@H]2O[C@H](CO)[C@@H](O)[C@H](O)[C@H]2O[C@H]2C[C@](C)(N)[C@H](O)[C@H](C)O2)Oc2ccc(cc2Cl)[C@H]1O` [Van, vancomycin hydrochloride, reference compound], which MIC (S. aureus ATCC 25923) is on record?
Its MIC is 0.5 µg/mL.

With KRLFkkLLKYLRkF as the compound, how does the fragment found (Trypsin) read?
The fragment found was “(k) kLLK (Y) 6–9, major, 18 h; also recorded: (K) YLR (k) 10–12, major, 18 h; also recorded: (K) YLRkF 10–14, major, 18 h; also recorded: (K) RLFk (k) 2–5, major, 18 h”.

For krLFkkLLkYLrkF, which fragment found (Trypsin) is on record?
Its fragment found is “krLFkkLLkYLr (k) 1–12, major, 18 h; also recorded: (r) LFkkLLkYLr (k) 3–12, major, 18 h”.
